This note sets out measurements from the supplement of paper PMC10307832.

Assay in all cases: relative viability (nuclei count vs DMSO), 5 days (fraction); higher = more cells survive
Compound in the assay “Carfilzomib + Tozasertib”: CC(C)C[C@H](NC(=O)[C@H](CCc1ccccc1)NC(=O)CN1CCOCC1)C(=O)N[C@@H](Cc1ccccc1)C(=O)N[C@@H](CC(C)C)C(=O)[C@@]1(C)CO1 [Carfilzomib] + Cc1cc(Nc2cc(N3CCN(C)CC3)nc(Sc3ccc(NC(=O)C4CC4)cc3)n2)n[nH]1 [Tozasertib] (partner 0.1 µM)
The method in brief:
(§1)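 Dosing by pin tool came one day after lung cancer cell lines were seeded in 1536-well plates, using either one drug or a fixed anchor-drug dose plus five library-drug doses (not always all listed) in √10 steps. After 5 days, nuclei were counted on 4× images. Relative viability is treated-well nuclei count divided by vehicle-well nuclei count, and values are medians of duplicate plates.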

Compound in the assay “Crizotinib + Vorinostat”: C[C@@H](Oc1cc(-c2cnn(C3CCNCC3)c2)cnc1N)c1c(Cl)ccc(F)c1Cl [Crizotinib] + O=C(CCCCCCC(=O)Nc1ccccc1)NO [Vorinostat] (partner 1 µM)
The method in brief: as §1

Compound in the assay “Carfilzomib + AZD7762”: CC(C)C[C@H](NC(=O)[C@H](CCc1ccccc1)NC(=O)CN1CCOCC1)C(=O)N[C@@H](Cc1ccccc1)C(=O)N[C@@H](CC(C)C)C(=O)[C@@]1(C)CO1 [Carfilzomib] + NC(=O)Nc1cc(-c2cccc(F)c2)sc1C(=O)N[C@H]1CCCNC1 [AZD7762] (partner 0.2 µM)
Summed up:
as §1

Compound in the assay “Olaparib + Phenformin”: O=C(c1cc(Cc2n[nH]c(=O)c3ccccc23)ccc1F)N1CCN(C(=O)C2CC2)CC1 [Olaparib] + N=C(N)NC(=N)NCCc1ccccc1 [Phenformin] (partner 250 µM)
The method in brief: as §1

Compound in the assay “Carfilzomib + Phenformin”: CC(C)C[C@H](NC(=O)[C@H](CCc1ccccc1)NC(=O)CN1CCOCC1)C(=O)N[C@@H](Cc1ccccc1)C(=O)N[C@@H](CC(C)C)C(=O)[C@@]1(C)CO1 [Carfilzomib] + N=C(N)NC(=N)NCCc1ccccc1 [Phenformin] (partner 250 µM)
The method in brief:
as §1

NCI-H1793: the relative viability with Carfilzomib + Tozasertib (first compound 0.003162 µM) stood at 0.469; with Carfilzomib + Tozasertib (first compound 0.01 µM), 0.327; in the assay with Carfilzomib + Tozasertib (first compound 0.03162 µM) it was 0.292; with Carfilzomib + Tozasertib (first compound 0.1 µM) it was 0.123; with Crizotinib + Vorinostat (first compound 0.03162 µM) it was 0.765; with Crizotinib + Vorinostat (first compound 0.1 µM) it was 0.748. The relative viability is 0.896 in the assay with Crizotinib + Vorinostat (first compound 1 µM); 0.481 with Carfilzomib + AZD7762 (first compound 0.001 µM); 0.883 with Carfilzomib + AZD7762 (first compound 0.003162 µM); 0.599 in the assay with Carfilzomib + AZD7762 (first compound 0.01 µM); 0.757 in the assay with Carfilzomib + AZD7762 (first compound 0.03162 µM); 0.506 with Carfilzomib + AZD7762 (first compound 0.1 µM). Moreover, the relative viability with Olaparib + Phenformin (first compound 0.08 µM) was 0.341; with Olaparib + Phenformin (first compound 0.253 µM) it was 0.348; with Olaparib + Phenformin (first compound 2.53 µM) it was 0.305; with Olaparib + Phenformin (first compound 8 µM), 0.287; in the assay with Carfilzomib + Phenformin (first compound 0.003162 µM) it was 0.404; in the assay with Carfilzomib + Phenformin (first compound 0.01 µM) it was 0.296. Further, the values for the relative viability in the assay with Carfilzomib + Phenformin (first compound 0.03162 µM) and in the assay with Carfilzomib + Phenformin (first compound 0.1 µM) were 0.407 and 0.261, respectively.
